Experimental findings from PubChem BioAssay (NCI) are described below.

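Growth conditions: 96-well plates. Treatment: test compound, 48 hours, 5 concentrations. Analysis: linear interpolation between bracketing concentrations; unreached endpoints set to highest concentration. At the GI50, growth is halved. TGI is the concentration that stops growth completely.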 A value given as a limit tells only on which side of the number the result lay.

Test systems include MOLT-4 leukemia; MALME-3M melanoma; CAKI-1 renal; PC-3 prostate; NCI-H522 lung; IGROV1 ovarian; SW-620 colon; MDA-MB-435; HCT-15 colon; HCC-2998 colon.
Common to all, as to assay: growth of human tumour cells (NCI), 48 h

For the molecule `COc1cc[nH]c1/C=C1\C(=O)Nc2ccc(F)c(C#C[C@@H](O)[C@@H](N)[C@@H](C)O)c21`, the GI50 is 0.6 µM in the assay with MOLT-4 leukemia; 0.504 µM with MALME-3M melanoma; 0.415 µM with CAKI-1 renal; 0.369 µM in the assay on PC-3 prostate; 0.575 µM in the assay with NCI-H522 lung; 0.618 µM with IGROV1 ovarian. Moreover, the GI50 in the assay on SW-620 colon was 0.559 µM; in the assay with MDA-MB-435, 0.561 µM; in the assay on HCT-15 colon, 0.839 µM; in the assay on HCC-2998 colon, 0.727 µM. Further, the TGI with MOLT-4 leukemia was found to be 2.06 µM; in the assay on MALME-3M melanoma, 1.7 µM; in the assay on CAKI-1 renal it was 5.73 µM; in the assay on PC-3 prostate, 1.6 µM; in the assay on NCI-H522 lung it was 1.77 µM; in the assay with IGROV1 ovarian it was 5.24 µM. Further, the TGI in the assay on SW-620 colon came to 3.07 µM; with MDA-MB-435, 2.83 µM; with HCT-15 colon, 18.3 µM; in the assay on HCC-2998 colon, 2.64 µM.

For the molecule `O=C1C=C[C@]2(C[C@@H](c3cccc(C(F)(F)F)c3)O[C@@H](c3cccc(C(F)(F)F)c3)O2)O1`, the GI50 in the assay on MALME-3M melanoma is 2.27 µM; in the assay on CAKI-1 renal it was 2.95 µM; in the assay on PC-3 prostate it was 2.4 µM; in the assay with NCI-H522 lung, 1.59 µM; in the assay on IGROV1 ovarian, 1.66 µM; in the assay with SW-620 colon, 1.76 µM. Also, the GI50 in the assay on MDA-MB-435 was 1.6 µM; in the assay with HCT-15 colon, 1.66 µM; in the assay on HCC-2998 colon it was 1.63 µM. The TGI was determined as 7.06 µM in the assay with MALME-3M melanoma; 12.4 µM in the assay on CAKI-1 renal; 8.27 µM in the assay on PC-3 prostate; 3.99 µM in the assay on NCI-H522 lung; 4.41 µM in the assay on IGROV1 ovarian; 5.14 µM in the assay with SW-620 colon. The figures for the TGI in the assay with MDA-MB-435, with HCT-15 colon and with HCC-2998 colon were 3.39 µM, 4.13 µM and 3.18 µM, respectively.

With `C1=CN2C[n+]3cccc(OCc4ccccc4)c3N=C2C(OCc2ccccc2)=C1`, the TGI is 30.6 µM in the assay with MALME-3M melanoma; 73.1 µM with CAKI-1 renal; greater than 100 µM in the assay on PC-3 prostate; 15.8 µM in the assay on NCI-H522 lung; 27.7 µM with IGROV1 ovarian; greater than 100 µM in the assay on SW-620 colon. For the same molecule, the TGI in the assay on MDA-MB-435 is 33.2 µM; in the assay with HCT-15 colon, greater than 100 µM; with HCC-2998 colon it was 23.2 µM.

Regarding `ClC(=Nc1cccc2ccccc12)N(c1ccccc1)c1ccccc1`, the TGI with MALME-3M melanoma, in the assay on CAKI-1 renal, in the assay with PC-3 prostate, in the assay with NCI-H522 lung, with IGROV1 ovarian and in the assay on SW-620 colon was greater than 100 µM in each case. The figures for the TGI in the assay with MDA-MB-435, in the assay with HCT-15 colon and in the assay with HCC-2998 colon were greater than 100 µM, greater than 100 µM and 54.8 µM, respectively.

`COc1ccc(/C(=C/c2cc(OC)c(OC)c(OC)c2)[N+](=O)[O-])cc1`: the GI50 in the assay on MALME-3M melanoma is 1.68 µM; in the assay on PC-3 prostate it was 1.95 µM; in the assay with NCI-H522 lung, 1.95 µM; in the assay on IGROV1 ovarian, 1.8 µM; with SW-620 colon, 1.71 µM; in the assay on MDA-MB-435, 1.81 µM. The GI50 was 1.63 µM in the assay on HCT-15 colon and 1.81 µM in the assay on HCC-2998 colon. Besides, the TGI came to 3.71 µM in the assay on MALME-3M melanoma; 3.88 µM in the assay with PC-3 prostate; 3.62 µM with NCI-H522 lung; 3.94 µM in the assay with IGROV1 ovarian; 3.91 µM in the assay on SW-620 colon; 3.99 µM with MDA-MB-435. Besides, the TGI in the assay on HCT-15 colon is 3.54 µM; with HCC-2998 colon it was 3.28 µM.

Regarding `COc1cccc(NC(=O)c2sc3nc4c(cc3c2N)CCCC4)c1`, the GI50 is 0.765 µM in the assay on MOLT-4 leukemia; 0.503 µM in the assay with CAKI-1 renal; 0.504 µM in the assay with PC-3 prostate; 0.806 µM in the assay on NCI-H522 lung; 4.1 µM with IGROV1 ovarian; 0.45 µM with SW-620 colon. Besides, the GI50 is 0.15 µM in the assay with MDA-MB-435, 0.387 µM in the assay with HCT-15 colon and 1.6 µM in the assay on HCC-2998 colon. The TGI with MOLT-4 leukemia is greater than 100 µM; in the assay on CAKI-1 renal, 66.3 µM; with PC-3 prostate, greater than 100 µM; with NCI-H522 lung, greater than 100 µM; in the assay on IGROV1 ovarian it was greater than 100 µM; with SW-620 colon, greater than 100 µM. The TGI is 0.44 µM in the assay on MDA-MB-435, greater than 100 µM in the assay with HCT-15 colon and greater than 100 µM with HCC-2998 colon.

For the molecule `Cc1ccc(S(=O)(=O)N/N=C/C(Br)=C(/Br)C(=O)O)cc1`, the TGI is 3.51 µM in the assay on MOLT-4 leukemia; 14.3 µM in the assay with MALME-3M melanoma; 18.1 µM in the assay with CAKI-1 renal; 29.3 µM in the assay on PC-3 prostate; 34.7 µM with IGROV1 ovarian; 14 µM in the assay on SW-620 colon. In addition, the results for the TGI in the assay with MDA-MB-435, in the assay with HCT-15 colon and in the assay with HCC-2998 colon were 18.3 µM, 8.67 µM and 15.7 µM, respectively.

As to `CC1(C)N=C(N)N=C(N)N1c1cccc(/C=C/C=C/c2cccc([N+](=O)[O-])c2)c1`, the GI50 in the assay on MOLT-4 leukemia was 5.9 µM; in the assay on CAKI-1 renal, 75.3 µM; in the assay on PC-3 prostate it was 0.448 µM; in the assay on NCI-H522 lung, 4.72 µM; with IGROV1 ovarian, 1.18 µM; in the assay with SW-620 colon, 2.56 µM. Besides, the GI50 is 2.68 µM in the assay with MDA-MB-435, 98.1 µM in the assay with HCT-15 colon and 4.71 µM in the assay with HCC-2998 colon. The TGI in the assay with MOLT-4 leukemia is 23.6 µM; in the assay on CAKI-1 renal, greater than 100 µM; in the assay on PC-3 prostate, 11.8 µM; in the assay on NCI-H522 lung, 20.1 µM; with IGROV1 ovarian, 13.7 µM; in the assay on SW-620 colon, 18.8 µM. In addition, the TGI is 15.2 µM in the assay with MDA-MB-435, greater than 100 µM in the assay with HCT-15 colon and 18.5 µM in the assay with HCC-2998 colon.

On to `CC12OC(C(=O)C13CC3)C1C(=O)c3ccccc3C(=O)C12` (stereo not drawn), for which the GI50 with MOLT-4 leukemia is 32 µM; with MALME-3M melanoma it was 27.9 µM; with CAKI-1 renal, 21.6 µM; with PC-3 prostate it was 19.8 µM; with NCI-H522 lung, 53.3 µM; with IGROV1 ovarian it was 23.1 µM. Moreover, the GI50 in the assay on MDA-MB-435 was 41.4 µM; with HCC-2998 colon it was 36.3 µM. Further, the TGI in the assay on MOLT-4 leukemia was greater than 100 µM; in the assay with MALME-3M melanoma, 87.1 µM; in the assay on CAKI-1 renal, 38.5 µM; with PC-3 prostate, 52.9 µM; in the assay with NCI-H522 lung, greater than 100 µM; in the assay with IGROV1 ovarian, 65.9 µM. For the same molecule, the TGI in the assay on MDA-MB-435 and in the assay with HCC-2998 colon was greater than 100 µM throughout.
